Test results as given in patent US20090093473A1, “Spiro-benzimidazoles as inhibitors of gastric acid secretion” (priority 2005, published 2009).

Tests used:
[1] = test system: pentagastrin-stimulated acid secretion of the perfused rat stomach; assay: Secretion-inhibiting action on the perfused rat stomach (pentagastrin-stimulated acid secretion); format: in vivo; settings: intraduodenal, anesthetized CD rat, dose 1 μmol/kg i.d.
Description: Testing of the Secretion-Inhibiting Action on the Perfused Rat Stomach
In Table A which follows, the influence of the compounds of the formula 1 according to the invention on the pentagastrin-stimulated acid secretion of the perfused rat stomach after intraduodenal administration in vivo is shown.
The abdomen of anesthetized rats (CD rat, female, 200-250 g; 1.5 g/kg i.m. urethane) was opened after tracheotomy by a median upper abdominal incision and a PVC catheter was fixed transorally in the esophagus and another via the pylorus such that the ends of the tubes just projected into the gastric lumen. The catheter leading from the pylorus led outward into the right abdominal wall through a side opening.
After thorough rinsing (about 50-100 ml), warm (37° C.) physiological NaCl solution was conbinuously passed through the stomach (0.5 ml/min, pH 6.8-6.9; Braun-Unita I). The pH (pH meter 632, glass electrode EA 147; φ=5 mm, Metrohm) and, by titration with a freshly prepared 0.01N NaOH solution to pH 7 (Dosimat 665 Metrohm), the secreted HCl were determined in the effluent in each case collected at an interval of 15 minutes.
The gastric secretion was stimulated by continuous infusion of 1 μg/kg (=1.65 mllh) of i.v. pentagastrin (left femoral vein) about 30 min after the end of the operation (i.e. after determination of 2 preliminary fractions). The substances to be tested were administered intraduodenally in a 2.5 ml/kg liquid volume 60 min after the start of the continuous pentagastrin infusion. The body temperature of the animals was kept at a constant 37.8-38° C. by infrared irradiation and heat pads (automatic, stepless control by means of a rectal temperature sensor).

Structure (SMILES) | melting point [°C] | inhibition in vivo at 1 µmol/kg [1] [%]
CNC(=O)c1cc2c(nc(C)n2C)c2c1CCC1(Cc3ccccc3C1)N2.Cl | 309 to 311 | –
COCCNC(=O)c1cc2c(nc(C)n2C)c2c1CCC1(Cc3ccccc3C1)N2.Cl | 294 to 295 | –
C=CCn1c(C)nc2c3c(c(C(=O)OC)cc21)CCC1(Cc2ccccc2C1)N3 [Example 2, Methyl 3-allyl-2-methyl-1′,3,3′,6,7,9-hexahydrospiro[imidazo[4,5-h]quinoline-8,2′-indene]-5-carboxylate] | 142 to 142.5 | –
C=CCn1c(C)nc2c3c(c(C(=O)OCC)cc21)CCC1(Cc2ccccc2C1)N3 [Example 3, Ethyl 3-allyl-2-methyl-1′,3,3′,6,7,9-hexahydrospiro[imidazo[4,5-h]quinoline-8,2′-indene]-5-carboxylate] | 150 | –
Cc1nc2c3c(c(CO)cc2n1C)CCC1(Cc2ccccc2C1)N3 [Example 6, (2,3-Dimethyl-1′,3,3′,6,7,9-hexahydrospiro[imidazo[4,5-h]quinoline-8,2′-inden]-5-yl)-methanol] | 272 to 274 | –
Cc1nc2c3c(c(C(=O)N(C)C)cc2n1C)CCC1(Cc2ccccc2C1)N3 [Example 11, N,N,2,3-tetramethyl-1′,3,3′,6,7,9-hexahydrospiro[imidazo[4,5-h]quinoline-8,2′-indene]-5-carboxamide] | 178 to 179 | > 80
Cc1nc2c3c(c(C(=O)N4CC(O)C4)cc2n1C)CCC1(Cc2ccccc2C1)N3 [Example 13, 1-[(2,3-dimethyl-1′,3,3′,6,7,9-hexahydrospiro[imidazo[4,5-h]quinoline-8,2′-inden]-5-yl)-carbonyl]azetidin-3-ol] | 171 to 172 | –
Cc1nc2c3c(c(C(=O)N4CC(F)C4)cc2n1C)CCC1(Cc2ccccc2C1)N3 [Example 15, 5-[(3-fluoroazetidin-1-yl)carbonyl]-2,3-dimethyl-1′,3,3′,6,7,9-hexahydrospiro[imidazo[4,5-h]quinoline-8,2′-indene]] | 259 to 260 | > 80
Cc1nc2c3c(c(C(=O)NCCO)cc2n1C)CCC1(Cc2ccccc2C1)N3 [Example 17, N-(2-hydroxyethyl)-2,3-dimethyl-1′,3,3′,6,7,9-hexahydrospiro[imidazo[4,5-h]quinoline-8,2′-indene]-5-carboxamide] | 167 to 168 | –
Cc1nc2c3c(c(C(=O)NC[C@H](C)O)cc2n1C)CCC1(Cc2ccccc2C1)N3 [Example 20, N-[(2S)-2-hydroxypropyl]-2,3-dimethyl-1′,3,3′,6,7,9-hexahydrospiro[imidazo[4,5-h]-quinoline-8,2′-indene]-5-carboxamide] | 224 to 225 | –
Cc1nc2c3c(c(C(=O)N4CCCC4)cc2n1C)CCC1(Cc2ccccc2C1)N3 [Example 22, 2,3-dimethyl-5-(pyrrolidin-1-ylcarbonyl)-1′,3,3′,6,7,9-hexahydrospiro[imidazo[4,5-h]-quinoline-8,2′-indene]] | 263 to 264 | > 80
CNC(=O)c1cc2c(nc(C)n2C)c2c1CCC1(Cc3ccccc3C1)N2.CS(=O)(=O)O [Example 28, N,2,3-Trimethyl-1′,3,3′,6,7,9-hexahydrospiro[imidazo[4,5-h]quinoline-8,2′-indene]-5-carboxamide methanesulphonate] | 321 to 324 | –
CCOCCNC(=O)c1cc2c(nc(C)n2C)c2c1CCC1(Cc3ccccc3C1)N2 [Example 31, N-(2-ethoxyethyl)-2,3-dimethyl-1′,3,3′,6,7,9-hexahydrospiro[imidazo[4,5-h]quinoline-8,2′-indene]-5-carboxamide] | 180 to 181 | –
CS(=O)(=O)O.Cc1nc2c3c(c(C(=O)NC4CC4)cc2n1C)CCC1(Cc2ccccc2C1)N3 [Example 37, N-cyclopropyl-2,3-dimethyl-1′,3,3′,6,7,9-hexahydrospiro[imidazo[4,5-h]quinoline-8,2′-indene]-5-carboxamide methanesulphonate] | 308 to 309 | –

Further lines, with some results ahead:

melting point [°C] | Structure (SMILES) | inhibition in vivo at 1 µmol/kg [1] [%]
167 to 168 | CCOC(=O)c1cc2c(nc(C)n2C)c2c1CCC1(Cc3ccccc3C1)N2 [Example 1, Ethyl 2,3-dimethyl-1′,3,3′,6,7,9-hexahydrospiro[imidazo[4,5-h]quinoline-8,2′-indene]-5-carboxylate] | –
237 to 238 | CNC(=O)c1cc2c(nc(C)n2C)c2c1CCC1(Cc3ccccc3C1)N2 [Example 4, N,2,3-Trimethyl-1′,3,3′,6,7,9-hexahydrospiro[imidazo[4,5-h]quinoline-8,2′-indene]-5-carboxamide] | > 80
240 to 241 | CNC(=O)c1cc2[nH]c(C)nc2c2c1CCC1(Cc3ccccc3C1)N2 [Example 9, N,2-dimethyl-1′,3,3′,6,7,9-hexahydrospiro[imidazo[4,5-h]quinoline-8,2′-indene]-5-carboxamide] | –
183 | Cc1nc2c3c(c(C(=O)N(C)C)cc2[nH]1)CCC1(Cc2ccccc2C1)N3 [Example 10, N,N,2-Trimethyl-1′,3,3′,6,7,9-hexahydrospiro[imidazo[4,5-h]quinoline-8,2′-indene]-5-carboxamide] | –
194 to 195 | Cc1nc2c3c(c(C(=O)N(C)CCO)cc2n1C)CCC1(Cc2ccccc2C1)N3 [Example 12, N-(2-hydroxyethyl)-N,2,3-trimethyl-1′,3,3′,6,7,9-hexahydrospiro[imidazo[4,5-h]quinoline-8,2′-indene]-5-carboxamide] | –
222 to 223 | CC(=O)CNC(=O)c1cc2c(nc(C)n2C)c2c1CCC1(Cc3ccccc3C1)N2 [Example 14, 2,3-dimethyl-N-(2-oxopropyl)-1′,3,3′,6,7,9-hexahydrospiro[imidazo[4,5-h]quinoline-8,2′-indene]-5-carboxamide] | > 80
186 to 187 | COCCNC(=O)c1cc2c(nc(C)n2C)c2c1CCC1(Cc3ccccc3C1)N2 [Example 16, N-(2-methoxyethyl)-2,3-dimethyl-1′,3,3′,6,7,9-hexahydrospiro[imidazo[4,5-h]quinoline-8,2′-indene]-5-carboxamide] | > 80
272 to 273 | Cc1nc2c3c(c(C(N)=O)cc2n1C)CCC1(Cc2ccccc2C1)N3 [Example 18, 2,3-dimethyl-1′,3,3′,6,7,9-hexahydrospiro[imidazo[4,5-h]quinoline-8,2′-indene]-5-carboxamide] | > 80
258 to 259 | Cc1nc2c3c(c(C(=O)N(C)C[C@H](C)O)cc2n1C)CCC1(Cc2ccccc2C1)N3 [Example 19, N-[(2S)-2-hydroxypropyl]-N,2,3-trimethyl-1′,3,3′,6,7,9-hexahydrospiro[imidazo[4,5-h]-quinoline-8,2′-indene]-5-carboxamide] | –
160 to 161 | COCCN(C)C(=O)c1cc2c(nc(C)n2C)c2c1CCC1(Cc3ccccc3C1)N2 [Example 21, N-(2-methoxyethyl)-N,2,3-trimethyl-1′,3,3′,6,7,9-hexahydrospiro[imidazo[4,5-h]quinoline-8,2′-indene]-5-carboxamide] | > 80
237 to 238 | Cc1nc2c3c(c(C(=O)NCCCO)cc2n1C)CCC1(Cc2ccccc2C1)N3 [Example 26, N-(3-hydroxypropyl)-2,3-dimethyl-1′,3,3′,6,7,9-hexahydrospiro[imidazo[4,5-h]quinoline-8,2′-indene]-5-carboxamide] | –
261 to 263 | CNC(=O)c1cc2c(nc(C)n2C)c2c1CCC1(Cc3ccccc3C1)N2.O=C(O)CC(=O)O [Example 30, N,2,3-Trimethyl-1′,3,3′,6,7,9-hexahydrospiro[imidazo[4,5-h]quinoline-8,2′-indene]-5-carboxamide malonate] | –
223 to 224 | CCNC(=O)c1cc2c(nc(C)n2C)c2c1CCC1(Cc3ccccc3C1)N2 [Example 32, N-ethyl-2,3-dimethyl-1′,3,3′,6,7,9-hexahydrospiro[imidazo[4,5-h]quinoline-8,2′-indene]-5-carboxamide] | –
191 to 192 | COCCNC(=O)c1cc2c(nc(C)n2C)c2c1CCC1(Cc3ccccc3C1)N2.O=C(O)/C=C\C(=O)O [Example 33, N-(2-methoxyethyl)-2,3-dimethyl-1′,3,3′,6,7,9-hexahydrospiro[imidazo[4,5-h]quinoline-8,2′-indene]-5-carboxamide maleate] | –
176 to 177 | COCCNC(=O)c1cc2c(nc(C)n2C)c2c1CCC1(Cc3ccccc3C1)N2.O=C(O)CC(=O)O [Example 34, N-(2-methoxyethyl)-2,3-dimethyl-1′,3,3′,6,7,9-hexahydrospiro[imidazo[4,5-h]quinoline-8,2′-indene]-5-carboxamide malonate] | –
242 to 243 | Cc1nc2c3c(c(C(=O)NC4CC4)cc2n1C)CCC1(Cc2ccccc2C1)N3.O=C(O)C(=O)O [Example 36, N-cyclopropyl-2,3-dimethyl-1′,3,3′,6,7,9-hexahydrospiro[imidazo[4,5-h]quinoline-8,2′-indene]-5-carboxamide oxalate] | –
